Data published in ChEMBL document CHEMBL1201862, “PubChem BioAssay data set” (2004).
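Cultured in 96-well plates, cells were exposed to test compound for 48 hours across five concentrations. The concentration for 50% growth inhibition is given as GI50.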 Active and inactive are the calls of the source. Rule as the data show it: active = GI50 up to about 1.1 µM and inactive = higher.

Columns and labels:
Assay in all cases: NCI-60 cell line screen, 48 h
ACHN = tested on: ACHN
BT-549 = tested on: BT-549
DU-145 = tested on: DU-145
HCT-15 = tested on: HCT-15
IGROV-1 = tested on: IGROV-1
K562 = tested on: K562
KM12 = tested on: KM12
NCI-H226 = tested on: NCI-H226
NCI-H23 = tested on: NCI-H23
NCI-H460 = tested on: NCI-H460
NCI-H522 = tested on: NCI-H522
NCI/ADR-RES = tested on: NCI/ADR-RES
SF-295 = tested on: SF-295
SK-MEL-5 = tested on: SK-MEL-5
SR = tested on: SR
SW-620 = tested on: SW-620
TK-10 = tested on: TK-10
U-251 = tested on: U-251
UO-31 = tested on: UO-31

Measured: GI50

O=[N+]([O-])C(=C(Nc1cccc2cccnc12)Nc1cccc2cccnc12)C(Cl)=C(Cl)Cl
31.2 µM: HCT-15
inactive: ACHN 22 µM | BT-549 30.1 µM | DU-145 58.3 µM | IGROV-1 3.98 µM | K562 27.9 µM | KM12 45.2 µM | NCI-H226 63.1 µM | NCI-H23 31.6 µM | NCI-H460 33.4 µM | NCI-H522 17.3 µM | NCI/ADR-RES 28.8 µM | SF-295 43 µM | SK-MEL-5 4.97 µM | SR > 100 µM | SW-620 66.7 µM | TK-10 > 100 µM | U-251 55.1 µM | UO-31 > 100 µM

CC[C@H](C)[C@H]1NC(=O)[C@@H](NC(=O)[C@@H](CC(C)C)N(C)C(=O)C2CCCN2C(=O)[C@H](C)O)[C@@H](C)OC(=O)[C@H](Cc2ccc(OC)cc2)N(C)C(=O)[C@@H]2CCCN2C(=O)[C@H](CCCCNC(=O)OCc2ccccc2)NC(=O)[C@H](C)C(=O)[C@H](C(C)C)OC(=O)C[C@@H]1O (stereo partly specified)
inactive: ACHN 20.1 µM | BT-549 7.93 µM | DU-145 9.84 µM | IGROV-1 7.74 µM | K562 7.29 µM | KM12 4.73 µM | NCI-H226 12.7 µM | NCI-H23 10.7 µM | NCI-H460 6.4 µM | NCI-H522 3.37 µM | NCI/ADR-RES > 25 µM | SF-295 8.63 µM | SK-MEL-5 4.41 µM | SR 12.2 µM | SW-620 7.74 µM | TK-10 6.97 µM | U-251 3.55 µM | UO-31 23.4 µM
> 25 µM: HCT-15

O=c1cc(/N=N\c2ccc(Cl)c(Cl)c2)[nH]c(=O)[nH]1
active: K562 0.977 µM | NCI-H522 1.07 µM | SR 0.337 µM
inactive: ACHN 1.62 µM | BT-549 2.21 µM | DU-145 2.94 µM | IGROV-1 1.57 µM | KM12 2.26 µM | NCI-H226 15.1 µM | NCI-H23 3.89 µM | NCI-H460 2.47 µM | NCI/ADR-RES 1.85 µM | SF-295 15.3 µM | SK-MEL-5 4.89 µM | SW-620 1.86 µM | TK-10 1.78 µM | U-251 1.87 µM | UO-31 2.07 µM
1.72 µM: HCT-15

CCC/N=C/c1cc(Cc2ccc(O)c(/C=N/CCC)c2)ccc1O
inactive: ACHN 20.7 µM | BT-549 10.7 µM | DU-145 4.61 µM | IGROV-1 4.09 µM | K562 1.69 µM | KM12 3.95 µM | NCI-H226 8.43 µM | NCI-H23 6.46 µM | NCI-H460 18.4 µM | NCI-H522 20.6 µM | NCI/ADR-RES 17.2 µM | SF-295 12.9 µM | SK-MEL-5 5.51 µM | SR 1.95 µM | SW-620 3.55 µM | TK-10 11.1 µM | U-251 2.64 µM | UO-31 17.1 µM
3.33 µM: HCT-15

Cc1c(C(=O)OCc2ccccc2)[n+]([O-])c2cc(F)c(F)cc2[n+]1[O-]
inactive: ACHN 1.94 µM | BT-549 1.83 µM | DU-145 2.41 µM | IGROV-1 1.73 µM | KM12 5.68 µM | NCI-H226 2.7 µM | NCI-H23 2.37 µM | NCI-H460 2.46 µM | NCI-H522 2 µM | NCI/ADR-RES 3.22 µM | SF-295 2.16 µM | TK-10 16.3 µM | U-251 2.3 µM | UO-31 1.79 µM
active: K562 0.264 µM | SK-MEL-5 0.698 µM | SR 0.877 µM | SW-620 0.64 µM
0.583 µM: HCT-15

CC(C)CSCC1OC(n2cnc3c(N)nccc32)C(O)C1O (stereo unspecified)
inactive: ACHN > 100 µM | BT-549 > 100 µM | DU-145 > 100 µM | IGROV-1 > 100 µM | K562 > 75 µM | KM12 > 100 µM | NCI-H226 > 57.1 µM | NCI-H23 > 100 µM | NCI-H460 > 100 µM | NCI-H522 45.8 µM | NCI/ADR-RES > 100 µM | SF-295 > 100 µM | SK-MEL-5 43.8 µM | SR > 100 µM | SW-620 > 100 µM | TK-10 > 100 µM | U-251 > 100 µM | UO-31 > 100 µM
> 100 µM: HCT-15

Nc1ccc2nc3n(c2c1)C(=O)c1ccccc1-3
inactive: ACHN > 100 µM | BT-549 > 100 µM | DU-145 > 100 µM | IGROV-1 > 100 µM | K562 > 100 µM | KM12 > 100 µM | NCI-H226 > 100 µM | NCI-H23 > 100 µM | NCI-H460 > 100 µM | NCI-H522 > 100 µM | NCI/ADR-RES > 100 µM | SF-295 > 100 µM | SK-MEL-5 > 100 µM | SR > 100 µM | SW-620 > 100 µM | TK-10 > 100 µM | U-251 > 100 µM | UO-31 > 100 µM
> 100 µM: HCT-15

CCC(C)N1CN(c2ccccc2)C2(CCN(CCCC3(c4ccc(F)cc4)OCCO3)CC2)C1=O (stereo unspecified)
4.75 µM: HCT-15
inactive: ACHN 6.61 µM | BT-549 2 µM | DU-145 17.6 µM | IGROV-1 16.5 µM | K562 8.24 µM | KM12 20.6 µM | NCI-H226 16.7 µM | NCI-H23 3.34 µM | NCI-H460 14.8 µM | NCI-H522 5.11 µM | NCI/ADR-RES 13.3 µM | SF-295 5.57 µM | SK-MEL-5 3.88 µM | SR 6.34 µM | SW-620 11.6 µM | TK-10 7.5 µM | U-251 5.86 µM | UO-31 5.09 µM

COC(=O)C(CCC1C=CN(S(=O)(=O)c2ccc(C)cc2)C1)/N=C/c1ccccc1 (stereo unspecified)
inactive: ACHN > 100 µM | BT-549 39.6 µM | DU-145 43 µM | IGROV-1 38.4 µM | K562 34.7 µM | KM12 34.8 µM | NCI-H226 32.3 µM | NCI-H23 26.4 µM | NCI-H460 44.9 µM | NCI-H522 34.4 µM | NCI/ADR-RES > 100 µM | SF-295 41.1 µM | SK-MEL-5 22.2 µM | SR 23.4 µM | SW-620 41.1 µM | TK-10 83.2 µM | U-251 43.5 µM | UO-31 65.5 µM
88.5 µM: HCT-15

COc1ccc(-n2c(Cn3nnc(-c4cccnc4)n3)nn(C3OC(COC(=O)c4ccccc4)C(OC(=O)c4ccccc4)C3OC(=O)c3ccccc3)c2=S)cc1 (stereo unspecified)
inactive: ACHN > 100 µM | BT-549 > 100 µM | DU-145 > 100 µM | IGROV-1 32.4 µM | K562 > 100 µM | KM12 > 100 µM | NCI-H226 14.2 µM | NCI-H23 > 100 µM | NCI-H460 > 100 µM | NCI-H522 > 100 µM | NCI/ADR-RES > 100 µM | SF-295 > 100 µM | SK-MEL-5 > 100 µM | SR > 100 µM | SW-620 > 100 µM | TK-10 > 100 µM | U-251 > 100 µM | UO-31 > 100 µM
> 100 µM: HCT-15

O=c1[nH]c2cc3cccnc3c(Cl)c2nc1C(F)(F)F
inactive: ACHN 35.9 µM | BT-549 38.9 µM | DU-145 54.8 µM | IGROV-1 12.6 µM | K562 29.7 µM | KM12 21 µM | NCI-H226 30.1 µM | NCI-H23 25 µM | NCI-H460 27.5 µM | NCI-H522 28.6 µM | NCI/ADR-RES 33.3 µM | SF-295 41 µM | SK-MEL-5 14.5 µM | SR 28.2 µM | SW-620 > 100 µM | TK-10 68.9 µM | U-251 50.8 µM | UO-31 27.7 µM
44.5 µM: HCT-15

CC1(C)C2CCC1C(=O)C(C=O)C2 (stereo unspecified)
inactive: ACHN > 100 µM | BT-549 > 100 µM | DU-145 > 100 µM | IGROV-1 > 100 µM | K562 > 100 µM | KM12 > 100 µM | NCI-H226 > 100 µM | NCI-H23 > 100 µM | NCI-H460 > 100 µM | NCI-H522 > 100 µM | NCI/ADR-RES > 100 µM | SF-295 > 100 µM | SK-MEL-5 > 100 µM | SR 3.16 µM | SW-620 > 100 µM | TK-10 > 100 µM | U-251 > 100 µM | UO-31 > 100 µM
49.5 µM: HCT-15

C[n+]1c(-c2ccc(/C=N\N3CCN(/N=C/c4ccc(-c5cn6ccsc6[n+]5C)cc4)CC3)cc2)cn2ccsc21
34.5 µM: HCT-15
inactive: ACHN 65.5 µM | BT-549 17.1 µM | DU-145 23.3 µM | IGROV-1 30.7 µM | K562 11.8 µM | KM12 25.8 µM | NCI-H226 45.8 µM | NCI-H23 30.1 µM | NCI-H460 26.7 µM | NCI-H522 18.1 µM | NCI/ADR-RES > 100 µM | SF-295 28.6 µM | SK-MEL-5 22.8 µM | SR 41.4 µM | SW-620 32.1 µM | TK-10 35.7 µM | U-251 30.3 µM | UO-31 89.5 µM

Fc1cccc(Cl)c1/C=N\N=C1c2ccccc2-c2ccccc21
75.2 µM: HCT-15
inactive: ACHN 95.3 µM | BT-549 > 100 µM | DU-145 > 100 µM | IGROV-1 64.3 µM | K562 > 100 µM | KM12 40.7 µM | NCI-H226 > 100 µM | NCI-H23 > 100 µM | NCI-H460 79.8 µM | NCI-H522 > 100 µM | NCI/ADR-RES > 100 µM | SF-295 61.7 µM | SK-MEL-5 > 100 µM | SR 51.2 µM | SW-620 73.8 µM | TK-10 > 100 µM | U-251 78.9 µM | UO-31 > 100 µM
